Source: patent US20140221346A1, “THERAPEUTIC COMPOUNDS” (Gilead Sciences, Inc., priority 2013, published 2014)

Tests used:
[1] = Test B: Cytotoxicity Assay; type: cell-based; details: human, uninfected MT-4 cells, same protocol as Test A, CellTiter-Glo
Protocol: (§1) For the antiviral assay, 40 μL of 1× test concentration of 3-fold serially diluted compound in culture medium with 10% FBS was added to each well of a 384-well plate (10 concentrations) in quadruplicate. MT-4 cells were next mixed with HIV-IIIb at an m.o.i of 0.003 for 1 hour, after which time 35 μL of virus/cell mixture (2000 cells) was immediately added to each well containing 40 μL of diluted compound. The plates were then incubated at 37° C. for 5 days. After 5 days of incubation, 25 μl of 2× concentrated CellTiter-Glo™ Reagent (catalog #G7571, Promega Biosciences, Inc., Madison, Wis.) was added to each well containing MT-4 cells. Cell lysis was carried out by incubating at room temperature for 10 min and then chemiluminescence was read.
Compound cytotoxicity and the corresponding CC50 values was determined using the same protocol as described in the antiviral assay (Test A) except that uninfected cells were used.

HIV-IIIb = assay: Test A: Antiviral Assay in MT4 Cells; type: cell-based, HIV-1; details: Human immunodeficiency virus 1, IIIB, MT4, 120 h, read-out: % inhibition at 3 μM
Protocol: as §1

Row | SMILES | CC50 at 5 days [1] | inhibition at 3 µM (HIV-IIIb)
1 | NC(=O)c1cccc(-c2ccc(N)nc2C(Cc2cc(F)cc(F)c2)NC(=O)Cc2c[nH]c3ccc(F)cc23)c1 (stereo not shown) [Compound 4, 3-(6-amino-2-(2-(3,5-difluorophenyl)-1-(2-(5-fluoro-1H-indol-3-yl)acetamido)ethyl)pyridin-3-yl)benzamide] | 13.1 µM | 94%
2 | Nc1ccc(-c2cccc(OCC(F)(F)F)c2)c(C(Cc2cc(F)cc(F)c2)NC(=O)Cc2c[nH]c3ccc(F)cc23)n1 (stereo not shown) [Compound 8, N-(1-(6-amino-3-(3-(2,2,2-trifluoroethoxy)phenyl)pyridin-2-yl)-2-(3,5-difluorophenyl)ethyl)-2-(5-fluoro-1H-indol-3-yl)acetamide] | 11.7 µM | 50%
3 | CN(C)CCNc1ncc(-c2ccc(F)c(C(N)=O)c2)c([C@H](Cc2cc(F)cc(F)c2)NC(=O)Cn2nc(C(F)F)c3c2C(F)(F)CCC3(F)F)n1 [Compound 16B, (S)-5-(4-(1-(2-(3-(difluoromethyl)-4,4,7,7-tetrafluoro-4,5,6,7-tetrahydro-1H-indazol-1-yl)acetamido)-2-(3,5-difluorophenyl)ethyl)-2-((2-(dimethylamino)ethyl)amino)pyrimidin-5-yl)-2-fluorobenzamide] | 15.4 µM | 41%
4 | NC(=O)c1cc(-c2cnc(NC3CCOC3)nc2[C@H](Cc2cc(F)cc(F)c2)NC(=O)Cn2nc(C(F)F)c3c2C(F)(F)CCC3(F)F)ccc1F (stereo partly drawn) [Compound 25, 5-(4-((S)-1-(2-(3-(difluoromethyl)-4,4,7,7-tetrafluoro-4,5,6,7-tetrahydro-1H-indazol-1-yl)acetamido)-2-(3,5-difluorophenyl)ethyl)-2-((tetrahydrofuran-3-yl)amino)pyrimidin-5-yl)-2-fluorobenzamide] | 37.7 µM | 69%
5 | COc1cc(-c2ccc(N)nc2C(Cc2cc(F)cc(F)c2)NC(=O)Cc2c[nH]c3ccc(F)cc23)ccn1 (stereo not shown) [Compound 10, N-(1-(6-amino-2′-methoxy-[3,4′-bipyridin]-2-yl)-2-(3,5-difluorophenyl)ethyl)-2-(5-fluoro-1H-indol-3-yl)acetamide] | 23.8 µM | 38%
6 | CC(=O)Oc1ccc(-c2ccc(F)c(C(N)=O)c2)c([C@H](Cc2cc(F)cc(F)c2)NC(=O)Cn2nc(C(F)F)c3c2C(F)(F)CCC3(F)F)n1 [Compound 20B, (S)-5-(3-carbamoyl-4-fluorophenyl)-6-(1-(2-(3-(difluoromethyl)-4,4,7,7-tetrafluoro-4,5,6,7-tetrahydro-1H-indazol-1-yl)acetamido)-2-(3,5-difluorophenyl)ethyl)pyridin-2-yl acetate] | > 53.2 µM | 
7 | NC(=O)c1cc(-c2cnc(NCCn3ccnn3)nc2[C@H](Cc2cc(F)cc(F)c2)NC(=O)Cn2nc(C(F)F)c3c2C(F)(F)CCC3(F)F)ccc1F [Compound 23F, (S)-5-(2-((2-(1H-1,2,3-triazol-1-yl)ethyl)amino)-4-(1-(2-(3-(difluoromethyl)-4,4,7,7-tetrafluoro-4,5,6,7-tetrahydro-1H-indazol-1-yl)acetamido)-2-(3,5-difluorophenyl)ethyl)pyrimidin-5-yl)-2-fluorobenzamide] | 32.7 µM | 77%
8 | NC(=O)c1cc(-c2cnc(N3CCC(=O)CC3)nc2[C@H](Cc2cc(F)cc(F)c2)NC(=O)Cn2nc(C(F)F)c3c2C(F)(F)CCC3(F)F)ccc1F [Compound 19C, (S)-5-(4-(1-(2-(3-(difluoromethyl)-4,4,7,7-tetrafluoro-4,5,6,7-tetrahydro-1H-indazol-1-yl)acetamido)-2-(3,5-difluorophenyl)ethyl)-2-(4-oxopiperidin-1-yl)pyrimidin-5-yl)-2-fluorobenzamide] | > 51.5 µM | 26%
9 | NC(=O)c1cc(-c2cnc(NCCN3CCCC3)nc2[C@H](Cc2cc(F)cc(F)c2)NC(=O)Cn2nc(C(F)F)c3c2C(F)(F)CCC3(F)F)ccc1F [Compound 27] | 3.5 µM | 
